The values below come from PubChem BioAssay (NCI).

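Assay format: 96-well plates, 48-hour exposure. At the GI50, growth is halved. TGI: concentration producing complete growth inhibition.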

Some test systems named below: IGROV1 ovarian; MOLT-4 leukemia; HT29 colon; SK-MEL-5 melanoma; NCI-H460 lung; NCI-H522 lung; SN12C renal; HL-60(TB) leukemia; MALME-3M melanoma; TK-10 renal; HOP-62 NSCLC; SK-OV-3 ovarian; HS 578T breast; A498 renal.
Holding throughout (assay): NCI-60 cell line screen, 48 h

Consider `O=[N+]([O-])c1ccc(Cl)cc1C1ON=C(c2ccccc2)N1C12CC3CC(CC(C3)C1)C2` (stereo not drawn), for which the TGI in the assay with IGROV1 ovarian, in the assay with MOLT-4 leukemia, with HT29 colon, with SK-MEL-5 melanoma, in the assay with NCI-H460 lung and with NCI-H522 lung was > 100 µM in each case. Further, the TGI in the assay with SN12C renal, in the assay with HL-60(TB) leukemia, in the assay on MALME-3M melanoma, in the assay with TK-10 renal, in the assay on HOP-62 NSCLC and with SK-OV-3 ovarian was > 100 µM in each case. The TGI in the assay with HS 578T breast and with A498 renal was > 100 µM each time.
Regarding `O=C(O)c1c(CC(Cc2ccc3c(c2)CCCC3)C(=O)O)ccc2c1CCCC2` (stereo not drawn), the TGI with IGROV1 ovarian, in the assay on MOLT-4 leukemia, in the assay on HT29 colon, with SK-MEL-5 melanoma, in the assay on NCI-H460 lung and in the assay on NCI-H522 lung was > 100 µM throughout. Further, the TGI in the assay on SN12C renal, in the assay with HL-60(TB) leukemia, with MALME-3M melanoma, in the assay with TK-10 renal, in the assay with HOP-62 NSCLC and in the assay with SK-OV-3 ovarian was > 100 µM throughout. Moreover, the TGI in the assay with HS 578T breast and with A498 renal was > 100 µM each time.
Take `O=C1CC(Br)c2c(Cl)sc(Cl)c21` (stereo not drawn): the TGI was 24.7 µM with IGROV1 ovarian; 5.54 µM with MOLT-4 leukemia; 41.7 µM with HT29 colon; 41.9 µM in the assay on SK-MEL-5 melanoma; 34.8 µM with NCI-H460 lung; 37.3 µM with NCI-H522 lung. For the same compound, the TGI in the assay with SN12C renal turned out to be 30.6 µM; in the assay on HL-60(TB) leukemia it was 6.9 µM; with MALME-3M melanoma, 25.6 µM; with TK-10 renal, 7.3 µM; in the assay on HOP-62 NSCLC it was 19.1 µM; with SK-OV-3 ovarian, 30.4 µM. For the same compound, the TGI in the assay with HS 578T breast came to 47 µM; in the assay with A498 renal, 38.4 µM.
Take `COc1ccc(/C=C2\CN(C)CC3=C2OC(N)=C(C#N)C3c2ccc(OC)cc2)cc1` (stereo not drawn): the TGI was > 95.5 µM with IGROV1 ovarian; > 49 µM in the assay with MOLT-4 leukemia; > 100 µM in the assay with HT29 colon; > 100 µM with SK-MEL-5 melanoma; > 100 µM with NCI-H460 lung; > 83.1 µM in the assay with NCI-H522 lung. In addition, the TGI in the assay with SN12C renal is > 100 µM; in the assay on HL-60(TB) leukemia it was > 27.6 µM; in the assay on MALME-3M melanoma it was 58.1 µM; in the assay on TK-10 renal it was > 100 µM; with HOP-62 NSCLC it was > 100 µM; in the assay with SK-OV-3 ovarian it was > 100 µM. The TGI in the assay on HS 578T breast and in the assay on A498 renal was > 100 µM each time.
On to `Clc1ccc(OCc2nnc3sc(-c4ccc(-c5ccc(Cl)cc5Cl)o4)nn23)c(Cl)c1`, for which the TGI with IGROV1 ovarian turned out to be 35.2 µM; in the assay with MOLT-4 leukemia it was 41.3 µM; in the assay on HT29 colon, 51.1 µM; in the assay with SK-MEL-5 melanoma, 44.4 µM; in the assay with NCI-H460 lung, 55.2 µM; in the assay with NCI-H522 lung it was 34.6 µM. The TGI with SN12C renal is 38.9 µM; in the assay on HL-60(TB) leukemia, 96.6 µM; with MALME-3M melanoma it was 39.4 µM; with TK-10 renal, 39.8 µM; in the assay with HOP-62 NSCLC, 31.3 µM; with SK-OV-3 ovarian, 48.3 µM. Moreover, the TGI in the assay on HS 578T breast was found to be 54.5 µM; in the assay with A498 renal it was 33.4 µM.
For `c1ccc2nc3[nH]c4ccccc4c3cc2c1`, the TGI in the assay on IGROV1 ovarian was found to be 2.57 µM; with MOLT-4 leukemia, 1.36 µM; in the assay on HT29 colon, 1.75 µM; in the assay on SK-MEL-5 melanoma, 2.01 µM; in the assay on NCI-H460 lung, 1.46 µM; in the assay with NCI-H522 lung it was 1.52 µM. For the same compound, the TGI in the assay on SN12C renal was 3.34 µM; with HL-60(TB) leukemia, 0.726 µM; in the assay with MALME-3M melanoma it was 2.12 µM; in the assay on TK-10 renal it was 10.7 µM; in the assay with SK-OV-3 ovarian it was 79.9 µM; with HS 578T breast, 5.84 µM. The TGI in the assay on A498 renal was determined as 43.1 µM.
As to `COC(=O)C1=NN2c3ccccc3C(=O)OCCC2C1` (stereo not drawn), the TGI in the assay on IGROV1 ovarian, with MOLT-4 leukemia, with HT29 colon, in the assay with SK-MEL-5 melanoma, in the assay on NCI-H460 lung and in the assay with NCI-H522 lung was > 100 µM throughout. In addition, the TGI in the assay on SN12C renal, in the assay with HL-60(TB) leukemia, in the assay on MALME-3M melanoma, in the assay on TK-10 renal, in the assay with HOP-62 NSCLC and with SK-OV-3 ovarian was > 100 µM throughout. Also, the TGI in the assay on HS 578T breast and with A498 renal was > 100 µM in each case.
As to `Cc1cc2c(cc1O)CC[C@@H]1[C@@H]2CC[C@]2(C)[C@@H](O)CC[C@@H]12`, the TGI with IGROV1 ovarian came to 45.4 µM; with MOLT-4 leukemia it was 17.7 µM; in the assay with HT29 colon, 31.6 µM; in the assay on SK-MEL-5 melanoma it was 16.1 µM; in the assay with NCI-H460 lung, 29.8 µM; with NCI-H522 lung, 23.4 µM. Also, the TGI with SN12C renal was 31.2 µM; in the assay with HL-60(TB) leukemia, 5.54 µM; in the assay on MALME-3M melanoma, 19.4 µM; in the assay with TK-10 renal it was 91.5 µM; in the assay with HOP-62 NSCLC it was 24.9 µM; in the assay on SK-OV-3 ovarian it was 34.1 µM. Further, the figures for the TGI in the assay on HS 578T breast and in the assay on A498 renal were 7.17 µM and 37.9 µM, respectively. Moreover, the GI50 with HOP-62 NSCLC was 10.9 µM.
Regarding `COc1ccc(CNc2nc(NCc3ccc(OC)cc3)nc(Nc3ccccc3)n2)cc1`, the TGI in the assay with IGROV1 ovarian is > 100 µM; in the assay on MOLT-4 leukemia, > 100 µM; in the assay with HT29 colon it was 4.1 µM; with SK-MEL-5 melanoma, > 100 µM; in the assay on NCI-H460 lung it was > 100 µM; in the assay with NCI-H522 lung it was > 100 µM. Besides, the TGI in the assay on SN12C renal, with HL-60(TB) leukemia, in the assay on MALME-3M melanoma, in the assay on TK-10 renal, in the assay with HOP-62 NSCLC and in the assay on SK-OV-3 ovarian was > 100 µM throughout. Besides, the TGI in the assay on HS 578T breast and in the assay on A498 renal was > 100 µM each time.
`Cc1nc2c(nc1C)-c1c(c3c(n1Cc1ccccc1)C(=O)CCC3)C(=O)C2=O`: the TGI in the assay on MOLT-4 leukemia was > 100 µM; with HT29 colon it was 23.9 µM; with SK-MEL-5 melanoma it was 24.6 µM; in the assay with NCI-H460 lung, > 100 µM; with NCI-H522 lung, 7.28 µM; in the assay on HL-60(TB) leukemia it was 97.7 µM. Also, the TGI is 14.2 µM in the assay on MALME-3M melanoma; 38.1 µM with TK-10 renal; > 100 µM with HOP-62 NSCLC; > 100 µM in the assay with SK-OV-3 ovarian; 7.99 µM with HS 578T breast; 38 µM in the assay with A498 renal.
With `Cc1ccc(C(=O)CC(Cl)=C(Cl)Cl)cc1`, the TGI with IGROV1 ovarian is > 100 µM; in the assay on MOLT-4 leukemia, 47 µM; with HT29 colon, > 100 µM; in the assay on SK-MEL-5 melanoma, > 100 µM; in the assay on NCI-H460 lung, > 100 µM; in the assay with NCI-H522 lung, > 100 µM. Further, the TGI with HL-60(TB) leukemia, in the assay on MALME-3M melanoma, with TK-10 renal, in the assay with HOP-62 NSCLC, in the assay with SK-OV-3 ovarian and in the assay on HS 578T breast was > 100 µM throughout. For the same compound, the TGI in the assay with A498 renal was > 100 µM.
In the case of `CO/N=C1\CCC2(O)C3Cc4ccc(O)c5c4C2(CCN3CC2CC2)[C@H]1O5` (stereo partly drawn), the TGI with IGROV1 ovarian, in the assay with MOLT-4 leukemia, in the assay with HT29 colon, with SK-MEL-5 melanoma, in the assay with NCI-H522 lung and with SN12C renal was > 100 µM each time. In addition, the TGI with HL-60(TB) leukemia, in the assay on MALME-3M melanoma, with TK-10 renal, with HOP-62 NSCLC, with SK-OV-3 ovarian and in the assay with HS 578T breast was > 100 µM in each case. Also, in the assay on A498 renal, the TGI was > 100 µM.
Turning to `N[C@@H]1c2c(Br)sc(Br)c2[C@H](O)[C@@H]1O`, the TGI in the assay with IGROV1 ovarian, with MOLT-4 leukemia, in the assay with HT29 colon, in the assay on SK-MEL-5 melanoma, in the assay on NCI-H460 lung and in the assay with NCI-H522 lung was > 100 µM throughout. In addition, the TGI with SN12C renal, in the assay with HL-60(TB) leukemia, with MALME-3M melanoma, in the assay with TK-10 renal, in the assay on SK-OV-3 ovarian and with HS 578T breast was > 100 µM in each case. For the same compound, in the assay with A498 renal, the TGI is > 100 µM.
In the case of `COC1=CC(=O)C(O)=C(C[C@@]2(C)[C@@H]3CCC[C@H](COC(=O)CCCCCNC(=O)OC(C)(C)C)[C@@]3(C)CC[C@@H]2C)C1=O`, the TGI in the assay on IGROV1 ovarian, in the assay with MOLT-4 leukemia, with HT29 colon, with SK-MEL-5 melanoma, with NCI-H522 lung and in the assay with SN12C renal was > 10 µM throughout. The TGI in the assay with HL-60(TB) leukemia, in the assay on MALME-3M melanoma, in the assay on TK-10 renal, in the assay on HOP-62 NSCLC, with SK-OV-3 ovarian and in the assay on HS 578T breast was > 10 µM throughout. Further, in the assay on A498 renal, the TGI is > 10 µM.
On to `COC1(OC)N=C(N)C2(C#N)C(C)CC(=O)N(N(C)C)C12C#N` (stereo not drawn), for which the TGI in the assay with IGROV1 ovarian, in the assay on MOLT-4 leukemia, in the assay with HT29 colon, in the assay on SK-MEL-5 melanoma, in the assay on NCI-H522 lung and in the assay on SN12C renal was > 100 µM in each case. Further, the TGI in the assay with HL-60(TB) leukemia, with MALME-3M melanoma, with TK-10 renal, with HOP-62 NSCLC, with SK-OV-3 ovarian and in the assay on HS 578T breast was > 100 µM in each case. Moreover, in the assay on A498 renal, the TGI is > 100 µM.
